Data published in patent US20210347805A1, “AZITHROMYCIN DERIVATIVES CONTAINING A PHOSPHONIUM ION AS ANTICANCER AGENTS” (RISING TIDE FOUNDATION, priority 2018, published 2021).

System: MDA-231 cancer cells
Assay: Inhibition of proliferation assay: cell confluence (IncuCyte live cell imaging)
Type: cell-based
Settings: MDA-231 cells, IncuCyte imaging over 4-5 d
From the text: The confluence value is a surrogate for cell proliferation and growth. The value is expressed as a percent confluence, which represents the fraction of culture dish-surface that is occupied by cells. As the number of cells in the dish increases over time due to proliferation, so will their coverage of that surface increase. Expansion of the cell population on the cell culture-dish surface and confluence have mostly a linear relationship until the cells on the plate surface begin to reach saturation or maximum density. Confluence is determined based on image analysis. Image based software can identify objects in the image field base on changes to pixel density in a grey scale image. The software can then assign a mask to those pixels within the object. Objects can be ‘gated’ out based on size and shape. To determine cell confluence, images of cells are first masked as objects. The surface area of the image that is masked is measured and compared to the total surface area of the culture dish surface to obtain a percent confluence. MDA-231 cancer cells were obtained from ATCC. Cells were cultured in Dulbecco's Modified Eagle Medium (DMEM) supplemented with 10% Fetal Bovine Serum (FBS), 2 mM Glutamax, 1 mM Non Essential Amino Acid (NEAA) solution and 1 mM sodium pyruvate. […] Final DMSO concentrations were ≤0.1%. Images were acquired with an IncuCyte Live Cell Imaging microscopy (Essen Bioscience) at every 3 h under cell culture conditions with 10× objective over 4-5 d. Cell confluence was calculated from one field of view per well using the IncuCyte in-built algorithm. Relative confluence values were obtained by normalising each value to the time zero value in each sample.

Structure (SMILES) | % Confluence (compound at 10 μM) [%] | % Confluence (compound at 100 μM) [%]
CC[C@H]1OC(=O)[C@H](C)[C@@H](O[C@H]2C[C@@](C)(OC)[C@@H](O)[C@H](C)O2)[C@H](C)[C@@H](O[C@@H]2O[C@H](C)C[C@H](N(C)C)[C@H]2O)[C@](C)(O)C[C@@H](C)CN(C(=O)CCCCCCCCCCCC[P+](c2ccccc2)(c2ccccc2)c2cnn(C(C)C)c2)[C@H](C)[C@@H](O)[C@]1(C)O [Example 2, {13-[(2R,3S,4R,5R,8R,10R,11R,12S,13S,14R)-11-{[(2S,3R,4S,6R)-4-(dimethylamino)-3-hydroxy-6-methyloxan-2-yl]oxy}-2-ethyl-3,4,10-trihydroxy-13-{[(2R,4R,5S,6S)-5-hydroxy-4-methoxy-4,6-dimethyloxan-2-yl]oxy}-3,5,8,10,12,14-hexamethyl-15-oxo-1-oxa-6-azacyclopentadecan-6-yl]-13-oxotridecyl}diphenyl[1-(propan-2-yl)-1H-pyrazol-4-yl]phosphonium chloride] | 5.1 | 
CC[C@H]1OC(=O)[C@H](C)[C@@H](O[C@H]2C[C@@](C)(OC)[C@@H](O)[C@H](C)O2)[C@H](C)[C@@H](O[C@@H]2O[C@H](C)C[C@H](N(C)C)[C@H]2O)[C@](C)(O)C[C@@H](C)CN(C(=O)CCCCCCCCCCC[P+](c2ccccc2)(c2ccccc2)c2cnn(C(C)(C)C)c2)[C@H](C)[C@@H](O)[C@]1(C)O [Example 3, (1-tert-butyl-1H-pyrazol-4-yl)({12-[(2R,3S,4R,5R,8R,10R,11R,12S,13S,14R)-11-{[(2S,3R,4S,6R)-4-(dimethylamino)-3-hydroxy-6-methyloxan-2-yl]oxy}-2-ethyl-3,4,10-trihydroxy-13-{[(2R,4R,5S,6S)-5-hydroxy-4-methoxy-4,6-dimethyloxan-2-yl]oxy}-3,5,8,10,12,14-hexamethyl-15-oxo-1-oxa-6-azacyclopentadecan-6-yl]-12-oxododecyl})diphenylphosphonium chloride] | 4 | 
CC[C@H]1OC(=O)[C@H](C)[C@@H](O[C@H]2C[C@@](C)(OC)[C@@H](O)[C@H](C)O2)[C@H](C)[C@@H](O[C@@H]2O[C@H](C)C[C@H](N(C)C)[C@H]2O)[C@](C)(O)C[C@@H](C)CN(C)[C@H](C)[C@@H](O)[C@]1(C)O [Azithromycin] | 99.1 | 17
CC[C@H]1OC(=O)[C@H](C)[C@@H](O[C@H]2C[C@@](C)(OC)[C@@H](O)[C@H](C)O2)[C@H](C)[C@@H](O[C@@H]2O[C@H](C)C[C@H](N(C)C)[C@H]2O)[C@](C)(O)C[C@@H](C)CN(C(=O)CCCCCCCCCCCC[P+](C2CCCC2)(C2CCCC2)C2CCCC2)[C@H](C)[C@@H](O)[C@]1(C)O.[Cl-] [Example 9, tricyclopentyl({13-[(2R,3S,4R,5R,8R,10R,11R,12S,13S,14R)-11-{[(2S,3R,4S,6R)-4-(dimethylamino)-3-hydroxy-6-methyloxan-2-yl]oxy}-2-ethyl-3,4,10-trihydroxy-13-{[(2R,4R,5S,6S)-5-hydroxy-4-methoxy-4,6-dimethyloxan-2-yl]oxy}-3,5,8,10,12,14-hexamethyl-15-oxo-1-oxa-6-azacyclopentadecan-6-yl]-13-oxotridecyl})phosphonium chloride] | 4 | 
CC[C@H]1OC(=O)[C@H](C)[C@@H](O[C@H]2C[C@@](C)(OC)[C@@H](O)[C@H](C)O2)[C@H](C)[C@@H](O[C@@H]2O[C@H](C)C[C@H](N(C)C)[C@H]2O)[C@](C)(O)C[C@@H](C)CN(C(=O)CCCCCCCCCCCCC[P+](c2ccccc2)(c2ccccc2)c2cnn(C)c2)[C@H](C)[C@@H](O)[C@]1(C)O.[Cl-] [Example 1, {14-[(2R,3S,4R,5R,8R,10R,11R,12S,13S,14R)-11-{[(2S,3R,4S,6R)-4-(dimethylamino)-3-hydroxy-6-methyloxan-2-yl]oxy}-2-ethyl-3,4,10-trihydroxy-13-{[(2R,4R,5S,6S)-5-hydroxy-4-methoxy-4,6-dimethyloxan-2-yl]oxy}-3,5,8,10,12,14-hexamethyl-15-oxo-1-oxa-6-azacyclopentadecan-6-yl]-14-oxotetradecyl}(1-methyl-1H-pyrazol-4-yl)diphenylphosphonium chloride] | 4.3 | 
CC[C@H]1OC(=O)[C@H](C)[C@@H](O[C@H]2C[C@@](C)(OC)[C@@H](O)[C@H](C)O2)[C@H](C)[C@@H](O[C@@H]2O[C@H](C)C[C@H](N(C)C)[C@H]2O)[C@](C)(O)C[C@@H](C)CN(C(=O)CCCCCCC[P+](c2cc(C)cc(C)c2)(c2cc(C)cc(C)c2)c2cnn(C(C)C)c2)[C@H](C)[C@@H](O)[C@]1(C)O.[Cl-] [Example 5, {8-[(2R,3S,4R,5R,8R,10R,11R,12S,13S,14R)-11-{[(2S,3R,4S,6R)-4-(dimethylamino)-3-hydroxy-6-methyloxan-2-yl]oxy}-2-ethyl-3,4,10-trihydroxy-13-{[(2R,4R,5S,6S)-5-hydroxy-4-methoxy-4,6-dimethyloxan-2-yl]oxy}-3,5,8,10,12,14-hexamethyl-15-oxo-1-oxa-6-azacyclopentadecan-6-yl]-8-oxooctyl}bis(3,5-dimethylphenyl)[1-(propan-2-yl)-1H-pyrazol-4-yl]phosphonium chloride] | 23.1 | 
CC[C@H]1OC(=O)[C@H](C)[C@@H](O[C@H]2C[C@@](C)(OC)[C@@H](O)[C@H](C)O2)[C@H](C)[C@@H](O[C@@H]2O[C@H](C)C[C@H](N(C)C)[C@H]2O)[C@](C)(O)C[C@@H](C)CN(C(=O)CCCCCC[P+](c2cc(C)cc(C)c2)(c2cc(C)cc(C)c2)c2cc(C)cc(C)c2)[C@H](C)[C@@H](O)[C@]1(C)O.[Cl-] [Example 7, {7-[(2R,3S,4R,5R,8R,10R,11R,12S,13S,14R)-11-{[(2S,3R,4S,6R)-4-(dimethylamino)-3-hydroxy-6-methyloxan-2-yl]oxy}-2-ethyl-3,4,10-trihydroxy-13-{[(2R,4R,5S,6S)-5-hydroxy-4-methoxy-4,6-dimethyloxan-2-yl]oxy}-3,5,8,10,12,14-hexamethyl-15-oxo-1-oxa-6-azacyclopentadecan-6-yl]-7-oxoheptyl}tris(3,5-dimethylphenyl)phosphonium chloride] | 4.6 | 
CC[C@H]1OC(=O)[C@H](C)[C@@H](O[C@H]2C[C@@](C)(OC)[C@@H](O)[C@H](C)O2)[C@H](C)[C@@H](O[C@@H]2O[C@H](C)C[C@H](N(C)C)[C@H]2O)[C@](C)(O)C[C@@H](C)CN(C(=O)CCCCCCCCCCCCC[P+](c2ccccc2)(c2ccccc2)C2CCOCC2)[C@H](C)[C@@H](O)[C@]1(C)O.[Cl-] [Example 8, {14-[(2R,3S,4R,5R,8R,10R,11R,12S,13S,14R)-11-{[(2S,3R,4S,6R)-4-(dimethylamino)-3-hydroxy-6-methyloxan-2-yl]oxy}-2-ethyl-3,4,10-trihydroxy-13-{[(2R,4R,5S,6S)-5-hydroxy-4-methoxy-4,6-dimethyloxan-2-yl]oxy}-3,5,8,10,12,14-hexamethyl-15-oxo-1-oxa-6-azacyclopentadecan-6-yl]-14-oxotetradecyl}(oxan-4-yl)diphenylphosphonium chloride] | 5.5 | 
CC[C@H]1OC(=O)[C@H](C)[C@@H](O[C@H]2C[C@@](C)(OC)[C@@H](O)[C@H](C)O2)[C@H](C)[C@@H](O[C@@H]2O[C@H](C)C[C@H](N(C)C)[C@H]2O)[C@](C)(O)C[C@@H](C)CN(C(=O)CCCCCC[P+](c2cc(C)cc(C)c2)(c2cc(C)cc(C)c2)c2cnn(C(C)C)c2)[C@H](C)[C@@H](O)[C@]1(C)O.[Cl-] [Example 6, {7-[(2R,3S,4R,5R,8R,10R,11R,12S,13S,14R)-11-{[(2S,3R,4S,6R)-4-(dimethylamino)-3-hydroxy-6-methyloxan-2-yl]oxy}-2-ethyl-3,4,10-trihydroxy-13-{[(2R,4R,5S,6S)-5-hydroxy-4-methoxy-4,6-dimethyloxan-2-yl]oxy}-3,5,8,10,12,14-hexamethyl-15-oxo-1-oxa-6-azacyclopentadecan-6-yl]-7-oxoheptyl}bis(3,5-dimethylphenyl)[1-(propan-2-yl)-1H-pyrazol-4-yl]phosphonium chloride] | 15.3 | 
CC[C@H]1OC(=O)[C@H](C)[C@@H](O[C@H]2C[C@@](C)(OC)[C@@H](O)[C@H](C)O2)[C@H](C)[C@@H](O[C@@H]2O[C@H](C)C[C@H](N(C)C)[C@H]2O)[C@](C)(O)C[C@@H](C)CN(C(=O)CCCCCCCCCCC[P+](c2ccccc2)(c2ccccc2)c2cnn(C3CCC3)c2)[C@H](C)[C@@H](O)[C@]1(C)O.[Cl-] [Example 4, (1-cyclobutyl-1H-pyrazol-4-yl)({12-[(2R,3S,4R,5R,8R,10R,11R,12S,13S,14R)-11-{[(2S,3R,4S,6R)-4-(dimethylamino)-3-hydroxy-6-methyloxan-2-yl]oxy}-2-ethyl-3,4,10-trihydroxy-13-{[(2R,4R,5S,6S)-5-hydroxy-4-methoxy-4,6-dimethyloxan-2-yl]oxy}-3,5,8,10,12,14-hexamethyl-15-oxo-1-oxa-6-azacyclopentadecan-6-yl]-12-oxododecyl})diphenylphosphonium chloride] | 4.4 | 
